Results reported in patent US20080171370A1, “DETOXIFYING PRE-TREATED LIGNOCELLULOSE-CONTAINING MATERIALS” (Novozymes North America, Inc., priority 2006, published 2008).
“Also recorded” adds a separate entry of the source.

Columns and labels:
[1] = test system: RED STAR Ethanol Red yeast; assay: Fermentation of detoxified fully unwashed pretreated corn stover (fuwPCS) filtrate, Example 1; format: cell-based; conditions: for average ethanol yield: 24 hours fermentation, 0.2 g/L yeast, 32° C., pH 5.0
Method: Yeast Preparation: Freeze-dried RED STAR™ Ethanol Red yeast re-hydrated in 10×YP media for 30 minutes at 32° C. It was dosed into the fermentations at a dose of 0.2 g/L.
Dilute acid steam exploded corn stover (PCS) was diluted with water and adjusted to pH 5.0 with NH4OH. The total solids (TS) level was 15 wt.-%. This sample was then saccharified for 63 hours at 50° C. with Cellutolytic Preparation A. Penicillin was added at a rate of 1 gl/L also added prior to saccharification was citrate buffer at a rate of 50 mL of 1 M citrate buffer per 100 ml of substrate. Following the saccharification step, the sample was filtered via a 0.2 micron Nalgene vacuum fitter system (Product # 8-000043-0803) to remove the solids and used for fermentation. The fuwPCS was then pipetted into separate sterile, 15 mL conical centrifuge tubes containing a small CO2 vent hole.
The pH was adjusted to about 2 using H2SO4; gallic acid was dosed at concentrations of 2 mM (GaA-L) and at 10 mM (GaA-H). The gallic acid was prepared by sonicating […] of garlic acid in 100 ml of de-ionized water. The broth was allowed to stand at 20° C. overnight and then readjusted to pH 5 using NaOH before adding yeast.
The dosing for amidase was carried out by treating with 5.6 Units/5 g substrate (AMD-L) and also 56 Units/5 g substrate (AMD-H). The amidase treated samples were brought to a pH of 7 with NaOH and allowed to sit in an oven at a temperature of 37° C. for 18 hours as a pre-treatment.
Fermentations were carried out in sterile 15 mL conical plastic centrifuge tubes at 32° C. for 48 hours at pH 5.0. A total of 5 grams of sample was fermented for each treatment. Treatments were run in triplicate.
Fermentation samples were collected after 24 hours for the 0.2 g/L yeast dose and analyzed for acetic acid and ethanol using an Agilent HPLC System with an analytical BIO-RAD Aminex HPX-87H column and a BIO-RAD Cation H refill guard column.

[2] = test system: RED STAR Ethanol Red yeast; assay: Fermentation of enzyme-detoxified fuwPCS filtrate at 37° C., Example 2; format: cell-based; conditions: detoxified 19 hours
Method: Dilute acid steam exploded corn stover (PCS) was diluted with water and adjusted to pH 5.0 with NH4OH. The total solids (TS) level was 16%. This sample was then saccharified for 72 hours at 50° C. with Cellulolytic Preparation A. Penicillin and citrate buffer were also added prior to saccharification. Following the saccharification step, the sample was filtered to remove the solids and the filtrate was used for fermentation. The fuwPCS was then pipetted into separate sterile, 15 mL conical centrifuge tubes containing a small CO2 vent hole.
Freeze-dried RED STAR™ Ethanol Red yeast was re-hydrated in 10×YP media for 30 minutes at 32° C. it was dosed into the fermentations at a dose of 0.2 g/L.
Filtered, unwashed PCS was detoxified for 19 hours using the optimal conditions for each enzyme. For amidase, the pH of the fuwPCS was first adjusted up to 7.0 using NaOH, the amidase was added at the tested dosages, and the tubes were incubated at 37° C. The pH of the fuwPCS was then readjusted to 5.0 using H2SO4 prior to fermentation. For the carbonic anhydrase the pH was left at 5.0, the enzyme was added and the tubes were incubated at 37° C. All enzymes were diluted with de-ionized water prior to dosing. Dosing ranges for each enzyme were as follows in units/mL of the final solution for amidase and kilo units/mL for carbonic anhydrase.
A total of 3.5 grams of sample was fermented for each treatment and the initial pH for all fermentations was 5.0. Treatments were run in triplicate. The final TS level was 13.7 wt.-%. These fermentations were run at a higher temperature of 37° C.
Fermentation samples were collected after 12 and 24 hours and analyzed for ethanol using an Agilent HPLC System with an analytical BIO-RAD Aminex HPX-87H column and a BIO-RAD Cation-H refill guard column.

amidase: amidase from Pseudomonas aeruginosa (Sigma Product # A6691)
average ethanol yield ([1]; amidase high dose (AMD-H) 56 Units/5 g substrate, pre-treatment pH 7, 37° C., 18 hours): 23.6 g/L | average ethanol yield ([1]; amidase low dose (AMD-L) 5.6 Units/5 g substrate, pre-treatment pH 7, 37° C., 18 hours): 21.8 g/L | effect on ethanol production by the yeast ([2]; all amidase doses tested (0.3-1.1-5.4-16.1), pH 7.0, 37° C., after 12 hours of fermentation): significant boosting effect | effect on ethanol production by the yeast ([2]; all amidase doses tested (0.3-1.1-5.4-16.1), pH 7.0, 37° C., after 24 hours of fermentation): boost in ethanol yield; also recorded: significant boosting effect

O=C(O)c1cc(O)c(O)c(O)c1 [Gallic acid, 3,4,5-trihydroxybenzoic acid]
average ethanol yield ([1]; gallic acid high dose (GaA-H) 10 mM, pH about 2, 20° C. overnight): 17.8 g/L | average ethanol yield ([1]; gallic acid low dose (GaA-L) 2 mM, pH about 2, 20° C. overnight): 19.4 g/L | amount of acetic acid present in the fermentation ([1]; gallic acid versus control, FIG. 2): significant drop

carbonic anhydrase: carbonic anhydrase from bovine erythrocytes (lyophilized powder, ≧2,500 W-A units/mg protein) Sigma Product # C3934
effect on ethanol production by the yeast ([2]; highest dose of carbonic anhydrase (33.3; 243 kilo units/g TS), pH 5.0, 37° C., after 12 hours of fermentation): boost in ethanol production; also recorded: significant boosting effects | effect on ethanol production by the yeast ([2]; highest dose of carbonic anhydrase (33.3; 243 kilo units/g TS), pH 5.0, 37° C., after 24 hours of fermentation): significant boosting effects
